# Test system: immobilized GST-tagged bait protein domains
# Experiment: ProP-PD phage selections (HD2 P8, sublibraries, HD2 P3, HD1 P8) with NGS and confidence level
# Assay type: binding, human
# [1] = bait KPNA4_Arm (O00629 68-487), HD2 library, benchmark motif instance recovered in the ProP-PD selection (TRUE/FALSE)
# [2] = bait SIN3A_PAH__Q96ST3_295_383, HD2 library, whether the validated benchmark motif instance was recovered in the ProP-PD selection (TRUE/FALSE)
# [3] = HD2 library, bait SUMO1_SUMO__P63165_1_101, known motif instance of the benchmarking set found (TRUE) or not found (FALSE) among selected peptides
# [4] = library HD2, bait EPS15_EH__P42566_121_215, whether the validated benchmark motif instance was recovered in the ProP-PD selection (TRUE/FALSE)
# [5] = bait CALM1_EF-hand__P0DP23_2_149, library HD2, benchmarking set of validated motif instances, TRUE = motif instance recovered in the ProP-PD selection
# [6] = library HD2, bait USP7_MATH-TRAF__Q93009_53_206, validated benchmark motif instance, in_library_check TRUE, TRUE/FALSE = instance recovered in ProP-PD selection
# [7] = library HD2, bait WDR5_WD_1234567_P61964_21_334, validated benchmark motif instance, in_library_check TRUE, TRUE/FALSE = instance recovered in ProP-PD selection
substance,measurement,setting,value
-----MSLYPSLEDLKVDK [SDCBP 3-7],motif_found,"HD2 library, bait PDCD6IP_Alix-V-domain__Q8WUM4_360_702, benchmark motif instance, in_library_check FALSE, in_library_coverage 0",FALSE
--MELNSLLILLEAAEYLERRDREA [MXD4 6-16],motif_found,"HD2 library, bait SIN3A_PAH__Q96ST3_295_383, benchmark motif instance, in_library_check FALSE, in_library_coverage 0",FALSE
-MDAATLTYDTLRFAEFED,motif_found,"bait MAP1LC3A_ATG8 (Q9H492 2-121), HD2 library, benchmark motif instance recovered in the ProP-PD selection (TRUE/FALSE)",FALSE
same,motif_found,"bait MAP1LC3B_ATG8 (Q9GZQ8 2-119), HD2 library, benchmark motif instance recovered in the ProP-PD selection (TRUE/FALSE)",FALSE
-MNSPGGRGKKKGSGGASNPV,motif_found,[1],FALSE
AAAAYVDHFAAECLVSMSSRAVVH,motif_found,[2],FALSE
AAALPQPEVILLDSDLDEPIDL,motif_found,[3],FALSE
AAAVRMNIQMLLEAADYLERREREA,motif_found,[2],FALSE
AAGPSVASSTNPFQTN,best_specificity,"library HD2, bait EPS15_EH__P42566_121_215, best matching peptide",1
same,best_confidence,"library HD2, bait EPS15_EH__P42566_121_215, confidence level of best matching peptide (4 High, 2-3 Medium, 1 Low)",3
same,motif_found,[4],TRUE
AAQATGTTNPFLL------,motif_found,[4],FALSE
AASVNANFAHFDNFPK,HD2_endomembrane confidence,"bait AP2B1_adaptin__P63010_700_937, HD2 P8 endomembrane sublibrary, confidence level (4 = High, 2-3 = Medium, 1 = Low)",4
ADTPPPAYLPPEDPMT,best_confidence,"library HD2, bait YAP1_WW_1_P46937_169_207, confidence level of best matching selected peptide (4 High, 2-3 Medium, 1 Low)",2
same,best_specificity,"library HD2, bait YAP1_WW_1_P46937_169_207, specificity score of best matching selected peptide",1
same,motif_found,"library HD2, bait YAP1_WW_1_P46937_169_207, validated benchmark motif instance, in_library_check TRUE, TRUE/FALSE = instance recovered in ProP-PD selection",TRUE
AEERVVVISSSE,motif_found,[3],FALSE
AESSQAVMSLPKLQQV,HD2 confidence,"bait ANKRA2_Ank__Q9H9E1_142_313, library HD2 P8",4
AFIIWLARRLKKGKK [SELL],motif_found,[5],FALSE
AGVFKMGRFQVSVAADGAQ,motif_found,"bait OXSR1___O95747_434_527, HD2 library, whether the validated benchmark motif instance was recovered in the ProP-PD selection (TRUE/FALSE)",FALSE
AIPWAAFPAVSGVHLS,HD confidence,"bait AP2B1_adaptin__P63010_700_937, HD1 P8 library, confidence level (4 = High, 2-3 = Medium, 1 = Low)",4
same,HD mean counts,"bait AP2B1_adaptin__P63010_700_937, HD1 P8 library, mean NGS counts over replicate selections",2.25
same,HD count proportions,"bait AP2B1_adaptin__P63010_700_937, HD1 P8 library, mean proportion of NGS counts",0.0009118
same,HD2 confidence,"bait AP2B1_adaptin__P63010_700_937, HD2 P8 library, confidence level (4 = High, 2-3 = Medium, 1 = Low)",3
AKNGAASKRAFKQSPPAVPALGAGVKKRRHGDEDTYY,motif_found,[1],FALSE
AMICYRKKRKGKLTLEDQAT,motif_found,[1],FALSE
APLEEEIFPSPPPPPEEEG,motif_found,"library HD2, bait VASP_EVH1__P50552_1_114, validated benchmark motif instance, in_library_check TRUE, TRUE/FALSE = instance recovered in ProP-PD selection",FALSE
APPVSGTFKFNTDAAEFIPQEKKNSGL,motif_found,"bait PABP-B_PABP__P11940_544_623, HD2 library, whether the validated benchmark motif instance was recovered in the ProP-PD selection (TRUE/FALSE)",FALSE
AQCSTSDSACRISPGQ,best_confidence,"library HD2, bait USP7_MATH-TRAF__Q93009_53_206, confidence level of best matching selected peptide (4 High, 2-3 Medium, 1 Low)",2
same,best_specificity,"library HD2, bait USP7_MATH-TRAF__Q93009_53_206, specificity score of best matching selected peptide",1
same,motif_found,[6],TRUE
AQSMVSGSHCTPPPPY,motif_found,"bait NEDD4_WW_4 (P46934 890-928), HD2 library, benchmark motif instance recovered in the ProP-PD selection (TRUE/FALSE)",TRUE
same,best_confidence,"bait NEDD4_WW_4 (P46934 890-928), HD2 library, confidence level (1-4) of best matching peptide",4
same,best_specificity,"bait NEDD4_WW_4 (P46934 890-928), HD2 library, specificity score of best matching peptide",0.99
AQSPLPSTNPFQPNGLAPG,motif_found,[4],FALSE
"ARKEVIRNKIRAIGKMARVFSVLR,VIRNKIRAIGKMARVFS,KEVIRNKIRAIGKMARVFS [PPP3CA]",motif_found,[5],FALSE
ARTKQ,motif_found,[7],FALSE
ARTKQTA,motif_found,[7],FALSE
ASDDSNGLEWENDFVSAEMDDNGN,motif_found,"library HD2, bait KLC1_TPR__Q07866_203_497, whether the validated benchmark motif instance was recovered in the ProP-PD selection (TRUE/FALSE)",FALSE
ASFTEDAPRPPVPGEEGELVST,motif_found,"HD2 library, bait TNKS_TANK-peptide-bind__O95271_174_649, known motif instance of the benchmarking set found (TRUE) or not found (FALSE) among selected peptides",FALSE
ASSATRELDELMASLSDFKIQGL,motif_found,"bait PTK2_Focal-AT__Q05397_891_1050, HD2 library, whether the validated benchmark motif instance was recovered in the ProP-PD selection (TRUE/FALSE)",FALSE
ASTS,motif_found,[6],FALSE
ATGSDSSGVIDLTMDDEESG,motif_found,[3],FALSE
